From patent US9139652B2, “Method for increasing M1 macrophages in a patient” (TRANSGENE SA, priority 2011, dated 2015)
Like-named read-outs stand apart in the source and are kept apart here.

Tests used:
[1] = tested on: differentiating macrophages; assay: Human macrophage differentiation assay: cytotoxicity / cell counts at day 6; assay type: cell-based
Description: Cells were counted following a 6-day culture of monocytes with GM-CSF and CSF-1, in the presence or absence of anti-CD115 mAbs or F(ab′)2 or with GW2580. Controls included cultures treated with rituximab or rituximab F(ab′)2, or without any added compound.
Buffy coats were provided by the Etablissement Francais du Sang (EFS, Strasbourg). Peripheral blood mononucleated cells (PBMC) were obtained by centrifugation on a ficoll gradient. Monocytes were purified by immunomagnetic cell sorting, using CD14-antibody-coated beads (Miltenyii). […] Monocytes were differentiated for 6 days in 48-well plates (3×10^5 cells/well) in RPMI-Glutamax™ medium supplemented with 10% heat inactivated fetal calf serum and 1% tri-antibiotic mixture (penicillin, streptomycin, neomycin). GM-CSF (10 ng/ml) was added in the cell culture medium from day 0 to day 3. H27K15, other antibodies or internal control GW2580 (LC Labs) were added at day 0. On day 3 post-isolation, monocytes were washed with PBS and further cultivated in medium supplemented with CSF-1 (10 ng/ml) and GM-CSF (2 ng/ml), in the presence or absence of antibodies or GW2580. On day 6, supernatants were collected and stored at −20° C. Cells were detached from the plastic and pools of triplicates were analyzed by IC/FC (immunocytochemistry/flow cytometry) for cell sizes and expression of FcγR and CD86. Cytokines and chemokines were quantified in the culture supernatants by multiplex (Bioplex, Bio-Rad) or by ELISA.
Three different doses of mab H27K15 or isotype control rituximab (0.1; 1 or 10 μg/ml) were added to the culture medium at the beginning of the culture and again 3 days later. F(ab′)2 generated from H27K15 or from rituximab were tested in parallel at equivalent molar concentrations.
Cell viability was analyzed at day 6 by counting 5 microscope fields in each well of the plate (one in the center of the well and four fields at mid-distance between the center and the side of the well).

[2] = tested on: IL-12p70 and IL-10 secretion by macrophages; assay: Human macrophage differentiation assay: IL-12p70 and IL-10 in day-6 culture supernatants; assay type: cell-based; settings: for IL-12p70 secretion: detection limit 1 pg/ml
Procedure: IL-12p70 and IL-10 were titrated in the culture supernatants from day-6 macrophages differentiated in the presence of mAb H27K15 (1 μg/ml), GW2580 (1 μM) or their respective negative controls rituximab or no treatment. Left panel: IL-12p70 and IL-10 levels (pg/ml) in macrophage cultures from 3 blood donors. Right: IL-12p70 (pg/ml)/IL-10 (pg/ml) ratios were calculated for each blood donor and each culture condition. In samples where IL-12p70 was undetectable (below the detection limit of 1 pg/m)l, its level was arbitrarily set at 1 pg/ml for the calculation of IL-12p70/IL-10 ratios.
(§1) Buffy coats were provided by the Etablissement Francais du Sang (EFS, Strasbourg). Peripheral blood mononucleated cells (PBMC) were obtained by centrifugation on a ficoll gradient. Monocytes were purified by immunomagnetic cell sorting, using CD14-antibody-coated beads (Miltenyii). Enriched monocyte suspensions were more than 95% pure. Monocytes were differentiated for 6 days in 48-well plates (3×10^5 cells/well) in RPMI-Glutamax™ medium supplemented with 10% heat inactivated fetal calf serum and 1% tri-antibiotic mixture (penicillin, streptomycin, neomycin). GM-CSF (10 ng/ml) was added in the cell culture medium from day 0 to day 3. H27K15, other antibodies or internal control GW2580 (LC Labs) were added at day 0. On day 3 post-isolation, monocytes were washed with PBS and further cultivated in medium supplemented with CSF-1 (10 ng/ml) and GM-CSF (2 ng/ml), in the presence or absence of antibodies or GW2580. On day 6, supernatants were collected and stored at −20° C. Cells were detached from the plastic and pools of triplicates were analyzed by IC/FC (immunocytochemistry/flow cytometry) for cell sizes and expression of FcγR and CD86. Cytokines and chemokines were quantified in the culture supernatants by multiplex (Bioplex, Bio-Rad) or by ELISA.
To study whether mAb H27K15 could affect macrophage differentiation, purified CD14^+ monocytes were cultured for […] in the presence of GM-CSF and CSF-1, known to induce respectively M1- and M2-type macrophages (Akagawa K. S., 2002; Verreck F. A. et al., 2004). Three different doses of mab H27K15 or isotype control rituximab (0.1; 1 or 10 μg/ml) were added to the culture medium at the beginning of the culture and again 3 days later. F(ab′)2 generated from H27K15 or from rituximab were tested in parallel at equivalent molar concentrations. F(ab′)2 generated from mAb 1.2 SM (WO 2009/026303) was tested for comparison with the F(ab′)2 derived from H27K15 or rituximab. The known blocking mAb to human CD115, 2-4A5, or the non-blocking mAb 9-4D2 (Sherr C. J. et al., 1989) were assayed and compared with isotype control rat IgG1. […]

[3] = tested on: CD64 (FcγRI) expression in human macrophages; assay: Human macrophage differentiation assay: surface CD64 expression by IC/FC; assay type: cell-based; settings: day-6 macrophages, GW2580 vs no treatment
Procedure: Macrophages obtained following a 6-day culture of monocytes from 3 different blood donors with GM-CSF and CSF-1 were analyzed by IC/FC for surface expression of CD64. Upper panels: CD64 staining in cultures from donor 1 treated with monoclonal antibody H27K15 (left, bold line) or with GW2580 (right, bold line) or their respective negative controls rituximab (left, thin line) or no treatment (right, thin line). Lower panel: Medians of fluorescence intensities in macrophage cultures treated with test compounds at 10, 1 or 0.1 μg/ml* were compared with those in the corresponding negative controls: H27K15 vs rituximab, H27K15-derived F(ab′)2 vs rituximab-derived F(ab′)2, mAbs 2-4A5 or 9-4D2 vs rat IgG1, GW2580 vs no treatment. Percentages of reduction in CD64 expression were calculated as: 100−[100×Median fluorescence intensity with test compound/Median fluorescence intensity with control]. […]
(§2) Buffy coats were provided by the Etablissement Francais du Sang (EFS, Strasbourg). […] Cells were detached from the plastic and pools of triplicates were analyzed by IC/FC (immunocytochemistry/flow cytometry) for cell sizes and expression of FcγR and CD86. Cytokines and chemokines were quantified in the culture supernatants by multiplex (Bioplex, Bio-Rad) or by ELISA. […]

[4] = tested on: CD86^bright SSC^low macrophage population; assay: Human macrophage differentiation assay: CD86^bright SSC^low population by IC/FC; assay type: cell-based; settings: day-6 macrophages, GW2580 vs no treatment
Procedure: Upper panels: Dot plots showing CD86 staining (x-axis) and side scatter (SSC, y-axis) of macrophages from donor 3 differentiated for 6 days in the presence of H27K15 (left) or negative control rituximab (right). A gate was set on the CD86^bright SSC^low cell population induced by H27K15. Lower panel: Percentages of CD86^bright SSC^low cells with the test compounds at 10, 1 or 0.1 μg/ml* were compared with those in the corresponding negative controls: H27K15 vs rituximab, H27K15-derived F(ab′)2 vs rituximab-derived F(ab′)2, GW2580 vs no treatment. Percentages of increase in the CD86^bright SSC^low cell population were calculated as: 100×percentage of CD86^bright SSC^low cells with test compound/percentage of CD86^bright SSC^low cells with control. Shown are the mean percentages of increase in the CD86^bright SSC^low cell population from the 3 blood donors. *except for F(ab′)2: 6.6; 0.6; and 0.06 μg/ml.
as §2, with “Strasbourg). Peripheral blood mononucleated cells (PBMC) were obtained by centrifugation on a ficoll gradient.” for “Strasbourg).”

[5] = tested on: MCP-1/CCL2 secretion by macrophages; assay: Human macrophage differentiation assay: MCP-1 in day-6 culture supernatants; assay type: cell-based; settings: day-6 macrophage supernatants, GW2580 1 μM vs no treatment
Procedure: MCP-1 and IL-6 were titrated in the culture supernatants from day-6 macrophages differentiated in the presence of mAb H27K15 (1 μg/ml), GW2580 (1 μM) or their respective negative controls rituximab or no treatment. Percentages of reduction in MCP-1 (upper panel) or in IL-6 production (lower panel) were calculated for the 3 blood donors as: 100−[100×cytokine concentration with test compound (pg/ml)/cytokine concentration with control (pg/ml)].
as §1, with “H27K15, other antibodies or internal control GW2580 (LC Labs) were added at day 0. On day 3 post-isolation, monocytes were washed with PBS and further cultivated in medium supplemented with CSF-1 (10 ng/ml) and GM-CSF (2 ng/ml), in the presence or absence of antibodies or GW2580. On day 6, supernatants were collected and stored at −20° C.” left out, “ELISA. […]” for “ELISA.”

[6] = tested on: MMP-9 production by monocytes cultured with GM-CSF and CSF-1; assay: MMP-9 ELISA in day-6 supernatants of monocytes cultured with GM-CSF and CSF-1; assay type: cell-based, human; settings: GW2580, effect in 2 out of 3 donors
Procedure: FIG. 6. Monocytes isolated from 3 different blood donors were differentiated for 6 days in the presence of GM-CSF and CSF-1, with or without mAb H27K15, Rituximab or GW2580. MAb H27K15 or Rituximab (0.1, 1 or 10 μg/ml) or equimolar concentrations of F(ab)′2 derived from both mAbs were added to the cultures. MMP-9 was titrated by ELISA (R&D Systems) in day-6 culture supernatants.
(§3) Buffy coats were provided by the Etablissement Francais du Sang (EFS, Strasbourg). Peripheral blood mononucleated cells (PBMC) were obtained by centrifugation on a ficoll gradient. Monocytes were purified by immunomagnetic cell sorting, using CD14-antibody-coated beads (Miltenyii). Enriched monocyte suspensions were more than 95% pure. […] Cells were detached from the plastic and pools of triplicates were analyzed by IC/FC (immunocytochemistry/flow cytometry) for cell sizes and expression of FcγR and CD86. Cytokines and chemokines were quantified in the culture supernatants by multiplex (Bioplex, Bio-Rad) or by ELISA.
CD14^+ monocytes from 3 different donors were allowed to differentiate in the presence of both GM-CSF and CSF-1, known to induce macrophage differentiation towards respectively the M1- and M2-types. […] After 6 days of culture, MMP-9 concentrations were measured in the supernatants by ELISA (FIG. 6). […]

[7] = tested on: CD163-positive M2-type macrophages; assay: Flow cytometry of CD163-positive cells in day-6 macrophages; assay type: cell-based, human; settings: 3 donors
Procedure: FIG. 7 Cells obtained after 6-day culture with GM-CSF and CSF-1 were harvested and incubated for 20 min at 4° C. with PBS containing human IgG Fc fragments to saturate Fc receptors. Fluorochrome-conjugated mAbs (anti-CD14-PerCP-Cy5.5, anti-CD163-PE, anti-CD206-APC, anti-CD1a-FITC, BD Biosciences) were then incubated with each sample for 20 min at 4° C. FCM analysis was performed using a FACS LSR-II (BD biosciences) with the DIVA software. Data from 3 different blood donors are presented.
as §3, with “ELISA. […]” for “ELISA.”
The surface expression of CD163 was analyzed by flow cytometry in day-6 macrophages derived from human monocytes cultured with GM-CSF and CSF-1. […]

Rituximab: human IgG1 isotype control, obtained from Roche
Microscopical observation of day-6 cultures (cytotoxicity) [1]: no obvious differences
IL-12p70 secretion ([2]; 3 blood donors, mAb 1 μg/ml): did not produce any detectable IL-12p70

Rituximab F(ab′)2: F(ab′)2 produced by pepsine digestion of rituximab, negative control
Microscopical observation of day-6 cultures (cytotoxicity) ([1]; compared with untreated cells, independently of the blood donor, monocytes cultured with GM-CSF and CSF-1): no obvious differences

COc1ccc(COc2ccc(Cc3cnc(N)nc3N)cc2OC)cc1 [GW2580]
Microscopical observation of day-6 cultures (cytotoxicity) ([1]; 1 μM, all blood donors, debris and less density of cells): relative cytotoxicity
Macrophage number remaining at day 6 compared with untreated cultures ([1]; GW2580 1 μM, cell counts in 5 microscope fields (FIG. 1)): approximately 70%
Surface expression of CD64 [3]: drastically reduced
Induction of CD86^bright SSC^low cell sub-population [4]: had appeared
IL-10 production ([2]; GW2580 1 μM): inhibition of IL-10 production
IL-12p70/IL-10 ratios ([2]; GW2580 1 μM vs no treatment): increased
IL-12p70 secretion ([2]; GW2580 1 μM): not detectable
Suppression of MCP-1 production [5]: as efficacious as H27K15
MMP-9 production [6]: dose-dependent decrease
Differentiation of the CD163+ macrophage population (CD163 expression) [7]: had the same effect in only ⅔ donors
